Laboratory results published in article PMC7059547, “Synthesis and herbicidal activities of aryloxyacetic acid derivatives as HPPD inhibitors” (Beilstein Journal of Organic Chemistry, 2020).
Entries after “also recorded” stand apart in the source; their conditions may differ. Where two headings read alike, the source gives them in different places.

Key:
[1] = system: E. crus-galli, S. faberii, D. sanguinalis, A. retroflexus, E. prostrata, A. juncea; assay: Post-emergence greenhouse herbicidal activity; type: in vivo; parameters: Sum of inhibition rate: scale not given here; conditions: 150 g ai/ha; for Sum of inhibition rate / herbicidal activity (in words): post-emergence; for Sum of inhibition rate: sum over six weeds (AJ, AR, EP, DS, EC, SF), 18 days after treatment
[2] = biological target: T1, Arabidopsis thaliana HPPD (AtHPPD) (Arabidopsis thaliana, UniProt P93836); assay: AtHPPD enzyme inhibition study; type: biochemical
T1 construct: made in house
T1 sequence (P93836 1-445): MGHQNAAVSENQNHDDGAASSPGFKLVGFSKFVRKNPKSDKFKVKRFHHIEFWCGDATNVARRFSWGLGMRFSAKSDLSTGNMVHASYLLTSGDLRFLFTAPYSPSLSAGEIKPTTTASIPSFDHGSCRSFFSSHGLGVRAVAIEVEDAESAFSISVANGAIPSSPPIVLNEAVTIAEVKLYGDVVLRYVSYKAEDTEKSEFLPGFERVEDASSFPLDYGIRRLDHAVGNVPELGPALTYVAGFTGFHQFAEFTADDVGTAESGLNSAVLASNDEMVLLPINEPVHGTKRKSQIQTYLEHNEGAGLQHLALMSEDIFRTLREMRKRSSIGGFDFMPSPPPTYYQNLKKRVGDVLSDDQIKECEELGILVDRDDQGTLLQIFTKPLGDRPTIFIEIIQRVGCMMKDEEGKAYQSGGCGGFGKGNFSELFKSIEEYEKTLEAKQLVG
Experimental: AtHPPD was prepared and puriﬁed according to the reported methods in the literature [19–2035–37].

cotton = assay: Postemergence crop safety, cotton; type: in vivo; conditions: 150 g ai/ha, four-leaf stage, after 15 days
Experimental: (§1) The representative crops, rice, wheat, maize, cotton, soybean, and canola were selected to test the crop safety of compound II3, II4, and II5. The six crops were separately planted in ﬂowerpots (12 cm diameter) containing the composite nutrient soil and grown at room temperature. When the crops had reached the four-leaf stage, the safety experiments were conducted at the rate of 150 g ai/ha. After 15 days, the ﬁnal results of crop safety were evaluated with two duplicates per experiment (Table 3).

maize = assay: Postemergence crop safety, maize; type: in vivo; conditions: 150 g ai/ha; for % injury maize: postemergence, four-leaf stage, after 15 days
Experimental: as §1

soybean = assay: Postemergence crop safety, soybean; type: in vivo; conditions: 150 g ai/ha, four-leaf stage, after 15 days
Experimental: as §1

canola = assay: Postemergence crop safety, canola; type: in vivo; conditions: 150 g ai/ha, four-leaf stage, after 15 days
Experimental: as §1

wheat = assay: Postemergence crop safety, wheat; type: in vivo; conditions: 150 g ai/ha; for % injury wheat: postemergence, four-leaf stage, after 15 days
Experimental: as §1

rice = assay: Postemergence crop safety, rice; type: in vivo; conditions: 150 g ai/ha, four-leaf stage, after 15 days
Experimental: as §1

Row | Compound | Ki ([2]; read-out: AtHPPD inhibition Ki) [µM] | Sum of inhibition rate [1] | further results
1 | Cc1ccc(OCC(=O)C2=C(O)CCCC2=O)c(C)c1 [I30] | 2.2 ± 0.034 | 40 | 
2 | Cn1nc(C2CC2)c(C(=O)COc2ccc([N+](=O)[O-])cc2Cl)c1O [I24] | 0.26 ± 0.012 | 110 | 
3 | O=C1CCCC(O)=C1C(=O)COc1cccnc1[N+](=O)[O-] [III5] | 0.23 ± 0.011 | 50 | 
4 | Cc1ccc(OCC(=O)c2c(C(F)(F)F)nn(C)c2O)c(C)c1 [I34] | 2.8 ± 0.67 | 30 | 
5 | Cn1nc(C2CC2)c(C(=O)COc2ccc([N+](=O)[O-])cc2)c1O [I20] | 0.5 ± 0.003 | 60 | 
6 | O=C1CCCC(O)=C1C(=O)COc1nc(Cl)c(Cl)cc1Cl [II1] | 0.093 ± 0.007 | 50 | 
7 | Cn1nc(C(F)(F)F)c(C(=O)COc2c(Cl)cc(Cl)cc2Cl)c1O [I12] |  | 335 | herbicidal activity (in words) [1]: poorer than expected herbicidal activity
8 | Cn1nc(C(F)(F)F)c(C(=O)COc2ccc(Cl)cc2Cl)c1O [I8] | 0.22 ± 0.023 | 170 | 
9 | Cn1nc(C2CC2)c(C(=O)COc2nc(Cl)c(Cl)cc2Cl)c1O [II4] |  | 520 | herbicidal activity (in words) [1]: broad-spectrum herbicidal activities; also recorded: slightly higher herbicidal activity than mesotrione; also recorded: excellent herbicidal activities; herbicidal activity for pre-emergence treatment (in words) ([1]; pre-emergence treatment as printed in the abstract): slightly better than that of mesotrione; % injury cotton (cotton): 60%; crop tolerance / safety of maize (in words) (maize): safe for weed control in maize fields; also recorded: tolerance; also recorded: safe for use on maize; % injury maize (maize): 10%; Ki [2]: 0.023 ± 0.006 µM; % injury soybean (soybean): 30%; % injury canola (canola): 100%; % injury wheat (wheat): 50%; % injury rice (rice): 30%
10 | CC1(C)CC(=O)C(C(=O)COc2ccc([N+](=O)[O-])cc2)=C(O)C1 [I18] | 0.93 ± 0.006 | 70 | 
11 | Cn1nc(C2CC2)c(C(=O)COc2ccc(Cl)cc2Cl)c1O [I7] | 0.36 ± 0.012 | 210 | 
12 | CC1(C)CC(=O)C(C(=O)COc2ccc(Cl)cc2)=C(O)C1 [I5] | 1 ± 0.036 | 110 | 
13 | CC1(C)CC(=O)C(C(=O)COc2ccccc2[N+](=O)[O-])=C(O)C1 [I13] | 0.45 ± 0.033 | 30 | 
14 | Cn1nc(C(F)(F)F)c(C(=O)COc2nc(Cl)c(Cl)cc2Cl)c1O [II5] |  | 415 | herbicidal activity (in words) [1]: excellent herbicidal activities; % injury cotton (cotton): 90%; % injury maize (maize): 30%; Ki [2]: 0.12 ± 0.003 µM; % injury soybean (soybean): 70%; % injury canola (canola): 100%; % injury wheat (wheat): 50%; % injury rice (rice): 50%
15 | COc1cc(C)ccc1OCC(=O)c1c(C)nn(C)c1O [I37] |  | 40 | Ki [2]: 2.7 ± 0.53 µM
16 | CC1(C)CC(=O)C(C(=O)COc2ccc([N+](=O)[O-])cc2Cl)=C(O)C1 [I22] | 1.02 ± 0.009 | 70 | 

Row | Compound | Ki ([2]; read-out: AtHPPD inhibition Ki) [µM] | Sum of inhibition rate [1] | further results
17 | Cn1nc(C(F)(F)F)c(C(=O)COc2ccc([N+](=O)[O-])cc2Cl)c1O [I25] | 0.21 ± 0.043 | 100 | 
18 | Cc1ccc(OCC(=O)c2c(C3CC3)nn(C)c2O)c(C)c1 [I33] | 2.8 ± 0.045 | 30 | 
19 | O=C1CCCC(O)=C1C(=O)COc1cc(Cl)ccc1Oc1ccc(Cl)cc1Cl [I26] | 1.9 ± 0.001 | 30 | 
20 | CC1(C)CC(=O)C(C(=O)COc2c(Cl)cc(Cl)cc2Cl)=C(O)C1 [I9] | 0.31 ± 0.048 | 70 | 
21 | Cc1ccc(OCC(=O)C2=C(O)CC(C)(C)CC2=O)c(C)c1 [I31] | 3.1 ± 0.34 | 20 | 
22 | CC1(C)CC(=O)C(C(=O)COc2nc(Cl)c(Cl)cc2Cl)=C(O)C1 [II2] | 0.097 ± 0.01 | 20 | 
23 | Cn1nc(C(F)(F)F)c(C(=O)COc2ccc3ccccc3c2Br)c1O [III4] | 2 ± 0.012 | 90 | 
24 | Cn1nc(C(F)(F)F)c(C(=O)COc2ccc([N+](=O)[O-])cc2)c1O [I21] | 1.5 ± 0.041 | 100 | 
25 | COc1cc(C)ccc1OCC(=O)C1=C(O)CCCC1=O [I35] |  | 40 | Ki [2]: 3.3 ± 0.14 µM
26 | COc1cc(C)ccc1OCC(=O)c1c(C2CC2)nn(C)c1O [I38] |  | 50 | Ki [2]: 2.9 ± 0.038 µM
27 | O=C1CCCC(O)=C1C(=O)COc1ccc([N+](=O)[O-])cc1 [I17] | 0.23 ± 0.004 | 80 | 
28 | Cn1nc(C2CC2)c(C(=O)COc2c(Cl)cc(Cl)cc2Cl)c1O [I11] | 0.081 ± 0.001 | 335 | 
29 | CS(=O)(=O)c1ccc(C(=O)C2C(=O)CCCC2=O)c([N+](=O)[O-])c1 [mesotrione, reference compound] | 0.013 ± 0.001 | 510 | % injury cotton (cotton): 80%; % injury maize (maize): 10%; % injury soybean (soybean): 50%; % injury canola (canola): 100%; % injury wheat (wheat): 40%; % injury rice (rice): 50%
30 | COc1cc(C)ccc1OCC(=O)C1=C(O)CC(C)(C)CC1=O [I36] |  | 20 | Ki [2]: 3.4 ± 0.21 µM
31 | Cn1nc(C2CC2)c(C(=O)COc2cccnc2[N+](=O)[O-])c1O [III6] | 0.21 ± 0.042 | 60 | 

Second part, led by results:

Row | Ki ([2]; read-out: AtHPPD inhibition Ki) [µM] | Compound | Sum of inhibition rate [1] | further results
32 | 1.2 ± 0.031 | Cc1nn(C)c(O)c1C(=O)COc1ccccc1 [I40] | 50 | 
33 | 1.5 ± 0.031 | Cn1nc(C2CC2)c(C(=O)COc2ccccc2)c1O [I1] | 60 | 
34 | 1.3 ± 0.056 | O=C1CCCC(O)=C1C(=O)COc1ccccc1 [I39] | 40 | 
35 | 0.36 ± 0.012 | Cn1nc(C2CC2)c(C(=O)COc2ccccc2Cl)c1O [I3] | 80 | 
36 | 2 ± 0.009 | Cc1ccc(OCC(=O)c2c(C)nn(C)c2O)c(C)c1 [I32] | 30 | 
37 | 0.021 ± 0.004 | Cc1nn(C)c(O)c1C(=O)COc1nc(Cl)c(Cl)cc1Cl [II3] | 415 | herbicidal activity (in words) [1]: broad-spectrum herbicidal activities; also recorded: excellent herbicidal activities; % injury cotton (cotton): 60%; crop tolerance / safety of maize (in words) (maize): high tolerance; % injury maize (maize): 10%; % injury soybean (soybean): 50%; % injury canola (canola): 90%; crop tolerance of wheat (in words) (wheat): high tolerance; % injury wheat (wheat): 10%; % injury rice (rice): 40%
38 | 0.63 ± 0.002 | Cc1nn(C)c(O)c1C(=O)COc1ccc([N+](=O)[O-])cc1 [I19] | 100 | 
39 | 0.24 ± 0.003 | Cc1nn(C)c(O)c1C(=O)COc1c(Cl)cc(Cl)cc1Cl [I10] | 60 | 
40 | 0.21 ± 0.042 | Cc1nn(C)c(O)c1C(=O)COc1ccccc1[N+](=O)[O-] [I14] | 40 | 
41 | 1.3 ± 0.017 | Cn1nc(C(F)(F)F)c(C(=O)COc2ccccc2)c1O [I2] | 40 | 
42 | 0.27 ± 0.004 | Cn1nc(C2CC2)c(C(=O)COc2ccccc2[N+](=O)[O-])c1O [I15] | 40 | 
43 | 0.44 ± 0.013 | Cn1nc(C(F)(F)F)c(C(=O)COc2ccccc2[N+](=O)[O-])c1O [I16] | 10 | 
44 | 0.012 ± 0.009 | Cc1nn(C)c(O)c1C(=O)COc1ccc([N+](=O)[O-])cc1Cl [I23] | 80 | 
45 | 0.59 ± 0.043 | Cn1nc(C(F)(F)F)c(C(=O)COc2ccccc2Cl)c1O [I4] | 40 | 
46 | 0.93 ± 0.032 | Cn1nc(C(F)(F)F)c(C(=O)COc2ccc(Cl)cc2)c1O [I6] | 180 | 
